In patent US9974760B2, “Compositions and methods for treating cancer” (Chemo-Enhanced LLC, priority 2011, dated 2018):
“Also recorded” adds a separate entry of the source.

What was measured:
[1] = system: L3.6 pancreatic cancer cells; experiment: Cell viability / cell death (MTT) in L3.6 pancreatic cancer cells; format: cell-based, human; details: for cell death of L3.6 cells: 2.5 μg/ml C6-ceramide, 1.5 μg/ml taxol
Description: L3.6 pancreatic cancer cells, cultured either in the basic DMEM medium or with 10% FBS, were treated with the indicated doses of taxol in the presence or absence of C6-ceramide (10 μg/ml) for 48 hours and cell viability was detected by MTT assay (FIGS. 1A-1B). L3.6 cells, cultured either in basic DMEM medium or with 10% FBS, were treated with the indicated dose of C6-ceramide in the presence or absence of taxol (1.5 μg/ml) for 48 hours and cell viability was detected by MTT assay (FIGS. 1C-1D). Mitomycin C (10 μg/ml) was always present in the media to prevent cell proliferation from occurring. The data represents the mean±SD of at least triplicate experiments. *P<0.05 versus group without C6-ceramide presents (FIGS. 1A-1B). **P<0.05 versus group without taxol presents (FIGS. 1C-1D).
(§1) FIGS. 3A-3H show synergistic anti-tumor effects of C6-ceramide and gemcitabine in vivo and in vitro. SCID/Beige/Taconic nude male mice (22-25 g; 6-8 weeks old) were ear tagged and randomized into 4 different groups (Control, Ceramide, gemcitabine, Ceramide+gemcitabine) combining 5 mice each prior to inoculation subcutaneous (s.c.) with 2×10^6 L3.6 cells in a 0.1 ml volume into the internal surface of the right thigh. Treatment was started 4 days after L3.6 cell injection with thrice weekly (3×/wk) intraperitoneal (i.p.) injections of gemcitabine (two doses: 5.0 and 10.0 mg/ml) with or without C6-ceramide (10 mg/ml) for 2 weeks. Mouse survival (FIGS. 3A, 3B, and 3E) and tumor volume (in cm^3; FIGS. 3C and 3D) were recorded (FIG. 3E). Pancreatic cancer cell lines, including L3.6 cells (FIG. 3F), Panc-1 cells (FIG. 3G) and MIA-PaCa2 cells (MIA, FIG. 3H) were cultured in basic DMEM medium and were treated with gemcitabine (Gem, 1 μg/ml). Mitomycin C was always present in the media to prevent cell proliferation from occurring. The data represent the mean±SD of at least triplicate experiments. *P<0.05 versus group without C6-ceramide presents. The experiments were repeated at least three times and similar results were observed.
Pancreatic cancer cell lines L3.6 cells were left untreated or treated with gemcitabine (Gem, 1 μg/ml) or taxol (1.5 μg/ml) in the presence or absence of C6-ceramide (10 μg/ml) for 2, 4 and 6 hours, AKT/mTORC1 and ERK activation were detected by Western Blot using indicated antibodies (FIGS. 5A and 5C). p-AKT (S473) and p-ERK at 4 hour time intervals for each treatment quantified (FIGS. 5B and 5D). L3.6 cells were pretreated with various inhibitors including PI3K/AKT inhibitor LY 294002 (LY, 1 μM), mTORC1 inhibitor rapamycin (100 nM), MEK/ERK inhibitor U0126 (1 μg/ml) or gemcitabine (1 μg/ml) for 48 hours, cell death was detected 48 hours later (FIG. 5E). The effects of the various inhibitors described above on AKT/mTORC1 and ERK activation were also detected by Western Blots using commercial available antibodies (FIG. 5F). *P<0.05 versus group without C6-ceramide presents. The experiments were repeated at least three times and similar results were observed.
Cell viability was measured by the 3-[4m5-dimethylthylthiazol-2-y]-2.5 diphenyltetrazolium bromide (MTT) method, as described in Cao et al. (2009) Sci. Signal, 2:RA17. Briefly, the cells were collected and seeded in 96-well plate at a density of 2×10^5 cells/cm^2. Different seeding densities were optimized at the beginning of the experiments. After overnight incubation cells were exposed to fresh medium containing indicated reagents at 37° C. After incubation for different time periods, 20 ul of MTT tetrazolium (Sigma, St. Louis, Mo.) salt dissolved in Hank's balanced solution at a concentration of 5 mg/ml was added to each well and incubated in a CO2 incubator for an additional 4 hours. The medium was subsequently aspirated from each well and 150 ul of DMSO (Sigma, St. Louis, Mo.) was added to dissolve formazan crystals and the absorbance of each well was obtained using a Dynatech MR5000 plate reader at a test wavelength of 490 nm with a reference wavelength of 630 nm. […]

MIA-PaCa2 cells = experiment: Cell death in MIA-PaCa2 pancreatic cancer cells; format: cell-based
Description: as §1, with “Pancreatic cancer cell lines, including L3.6 cells (FIG. 3F), Panc-1 cells (FIG. 3G) and MIA-PaCa2 cells (MIA, FIG. 3H) were cultured in basic DMEM medium and were treated with gemcitabine (Gem, 1 μg/ml).” left out
Cell viability was measured by the 3-[4m5-dimethylthylthiazol-2-y]-2.5 diphenyltetrazolium bromide (MTT) method, as described in Cao et al. (2009) Sci. Signal, 2:RA17. Briefly, the cells were collected and seeded in 96-well plate at a density of 2×10^5 cells/cm^2. Different seeding densities were optimized at the beginning of the experiments. […] The medium was subsequently aspirated from each well and 150 ul of DMSO (Sigma, St. Louis, Mo.) was added to dissolve formazan crystals and the absorbance of each well was obtained using a Dynatech MR5000 plate reader at a test wavelength of 490 nm with a reference wavelength of 630 nm.
The possible combination effect of C6-ceramide on gemcitabine-induced cytotoxicity (in vitro) and regression (in vivo) of the L3.6 pancreatic cancer cell was also tested according to the methods described in Examples 2 and 3. […] A synergistic anti-tumor effect of gemcitabine and C6-ceramide in multiple pancreatic cancer cells in vitro was also determined.

AMPK/ACC = AMPK/ACC signaling in L3.6 cell line; format: cell-based; details: for AMPK activation: taxol alone
From the text: The molecular mechanism involved in C6-ceramide induced chemosensitization effects was examined by focusing on taxol.
To further confirm the requirement of AMPK activation in this synergistic effect, siRNA directed against AMPK can be used.

Row | SMILES | sensitization to cetuximab ([1]; L3.6 cells) | enhancement of paclitaxel induced cell death ([1]; L3.6 cells, dose dependent manner) | L3.6 cell death, agent alone ([1]; basic DMEM medium, MTT) | L3.6 cell death ([1]; cultured in 10% FBS) | cell death of L3.6 cells ([1]; cultured in 10% FBS) | sensitization to cetuximab (MIA-PaCa2 cells; MIA PaCa-2, activating KRAS mutation) | cancer cell death (MIA-PaCa2 cells; MIA cells, gemcitabine 1.5 μg/ml) | effect on Taxol induced AMPK/ACC signaling (phosphorylation) (AMPK/ACC; C6-ceramide added to taxol, L3.6 cell line) | L3.6 cell death ([1]; basic DMEM medium, MTT, 48 hours, paclitaxel 1.5 μg/ml alone or combined with C6-ceramide) | AMPK activation (AMPK/ACC; listed as Taxol) | AMPK activation (AMPK/ACC; listed as taxol)
1 | CCCCCCCCCCCCC/C=C/[C@@H](O)[C@H](CO)NC(=O)CCCCC [C6-ceramide, N-hexanoyl-D-sphingosine] | markedly sensitized | dramatically enhanced | limited effects | neither taxol or C6-ceramide alone had any meaningful effects | neither of these two alone had any measurable effect | markedly sensitized | moderate effect | enhancing; also recorded: dramatically enhances |  |  | 
2 | CC(=O)O[C@H]1C(=O)[C@@]2(C)[C@H]([C@H](OC(=O)c3ccccc3)[C@]3(O)C[C@H](OC(=O)[C@H](O)[C@@H](NC(=O)c4ccccc4)c4ccccc4)C(C)=C1C3(C)C)[C@]1(OC(C)=O)CO[C@@H]1C[C@@H]2O [paclitaxel] |  |  |  | neither taxol or C6-ceramide alone had any meaningful effects | neither of these two alone had any measurable effect |  |  |  | less than 5% | strongly induce | moderate AMPK activation
